The values below are quoted from earlier work in US20090252757A1, “METHODS AND COMPOSITIONS FOR INHIBITING HIV INFECTION” (IRM LLC, priority 2005, published 2009).

The series deals with MLK3 (Homo sapiens, UniProt Q16584). To be noted: Roux et al., J. Biol. Chem. 277:49473-80, 2002.
Chain of MLK3 (Q16584 whole entry): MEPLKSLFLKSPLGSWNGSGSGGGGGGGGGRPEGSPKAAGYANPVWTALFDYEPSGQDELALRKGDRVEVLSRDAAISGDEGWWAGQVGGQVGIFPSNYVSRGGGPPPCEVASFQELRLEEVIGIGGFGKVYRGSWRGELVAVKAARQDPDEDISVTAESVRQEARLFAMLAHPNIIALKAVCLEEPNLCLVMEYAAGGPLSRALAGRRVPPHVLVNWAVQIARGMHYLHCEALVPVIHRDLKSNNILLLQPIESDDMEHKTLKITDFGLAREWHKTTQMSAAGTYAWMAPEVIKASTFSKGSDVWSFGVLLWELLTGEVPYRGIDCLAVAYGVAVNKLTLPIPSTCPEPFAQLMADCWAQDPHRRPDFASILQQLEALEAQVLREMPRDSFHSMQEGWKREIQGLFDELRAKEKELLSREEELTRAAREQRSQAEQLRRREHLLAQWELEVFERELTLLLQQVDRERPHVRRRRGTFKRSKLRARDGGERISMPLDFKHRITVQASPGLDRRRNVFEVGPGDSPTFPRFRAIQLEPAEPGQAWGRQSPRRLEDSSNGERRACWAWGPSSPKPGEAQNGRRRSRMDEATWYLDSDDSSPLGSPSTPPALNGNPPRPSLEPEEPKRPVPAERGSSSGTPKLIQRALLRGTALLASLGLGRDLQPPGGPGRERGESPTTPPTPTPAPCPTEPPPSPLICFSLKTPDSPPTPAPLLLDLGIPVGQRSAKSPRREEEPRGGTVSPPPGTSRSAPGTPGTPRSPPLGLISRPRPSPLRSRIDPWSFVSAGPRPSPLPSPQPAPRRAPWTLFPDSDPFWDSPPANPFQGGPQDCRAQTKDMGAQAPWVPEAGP

For `CCSCc1ccc2c(c1)c1c3c(c4c5cc(CSCC)ccc5n5c4c1n2[C@H]1C[C@](O)(C(=O)OC)[C@]5(C)O1)CNC3=O` [CEP1347], the “inhibition of MLK3 kinase activity” value is “inhibit the kinase activity of MLK3”.
